In US6528491B2, “Pyranoside derivatives” (Boehringer Ingelheim Pharma KG, priority 2000, dated 2003):

Target: LTB4 receptor (Homo sapiens, UniProt Q15722)
Assay: receptor binding test
From the text: The activity can be investigated pharmacologically and biochemically using tests as disclosed for example in WO 93/16036, pp. 15 to 17; reference is hereby made to the contents of this publication.

LTB4 receptor, sequence (Q15722 whole entry): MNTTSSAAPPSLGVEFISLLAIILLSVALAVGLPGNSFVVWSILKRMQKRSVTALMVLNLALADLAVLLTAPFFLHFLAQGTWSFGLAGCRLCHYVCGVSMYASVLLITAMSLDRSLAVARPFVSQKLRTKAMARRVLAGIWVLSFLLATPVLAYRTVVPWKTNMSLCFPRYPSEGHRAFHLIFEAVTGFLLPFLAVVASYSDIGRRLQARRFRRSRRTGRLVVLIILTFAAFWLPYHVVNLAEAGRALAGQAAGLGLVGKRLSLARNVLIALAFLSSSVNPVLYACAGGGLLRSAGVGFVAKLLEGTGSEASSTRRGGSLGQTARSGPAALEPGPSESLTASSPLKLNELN

CCCc1cc(-c2ccc(C(=N)N)cc2)ccc1OCCOc1cccc(O[C@@H]2O[C@H](C(=O)O)[C@@H](O)[C@H](O)[C@H]2O)c1 [Example 1, 3′-n-propyl-4′-[2-(3-hydroxyphenoxy)-ethoxy]-1,1′-biphenyl-4-carboximidamide-O-β-D-glucuronide]
Ki: 3.6 nM
